Assay [1] concerns the target T1, human CB2 receptors (Homo sapiens, UniProt P34972).
T1 construct: expressed in transfected cells; host or cells: CHO cells
In words: functional cAMP assay, human CB2. The assay is classed as cell-based. The settings on record: CHO cells expressing human CB2, cAMP; read-out: human CB2 EC50. An outline of the steps: (§1)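 CHO-hCB1/hCB2 cells, KRB + 1 mM IBMX preincubation 30 min 30 °C; cpd 30 min 30 °C; lysis + TR-FRET cAMP detection, 2 h RT; cAMP from std curve; EC50.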
On the technique in general: cAMP levels reflect the balance of adenylyl cyclase and phosphodiesterase activity.

Assay [2] deals with T2, human CB1 receptors (Homo sapiens, UniProt P21554).
T2 construct: expressed in transfected cells; host or cells: CHO cells
As to the kind of experiment: functional cAMP assay, human CB1. The assay is classed as cell-based. An outline of the steps: as §1

[3] abbreviates: CHO cells expressing human CB1, cAMP, read-out: human CB1 EC50.

Read-outs that look alike come from different tables or passages of the source.

T2 sequence (P21554 whole entry): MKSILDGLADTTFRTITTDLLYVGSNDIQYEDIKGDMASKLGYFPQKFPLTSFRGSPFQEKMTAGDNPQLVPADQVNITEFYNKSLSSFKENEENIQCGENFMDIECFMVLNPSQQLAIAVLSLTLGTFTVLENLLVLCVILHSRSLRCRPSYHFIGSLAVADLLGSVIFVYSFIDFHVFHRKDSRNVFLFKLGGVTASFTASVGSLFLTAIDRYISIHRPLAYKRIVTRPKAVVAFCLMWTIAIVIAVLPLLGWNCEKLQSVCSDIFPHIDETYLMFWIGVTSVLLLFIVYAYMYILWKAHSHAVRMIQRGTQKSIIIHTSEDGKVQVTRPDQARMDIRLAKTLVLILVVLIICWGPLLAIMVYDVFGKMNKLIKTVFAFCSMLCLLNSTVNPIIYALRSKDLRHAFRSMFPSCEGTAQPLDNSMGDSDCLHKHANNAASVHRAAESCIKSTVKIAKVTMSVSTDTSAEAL
T1 sequence (P34972 whole entry): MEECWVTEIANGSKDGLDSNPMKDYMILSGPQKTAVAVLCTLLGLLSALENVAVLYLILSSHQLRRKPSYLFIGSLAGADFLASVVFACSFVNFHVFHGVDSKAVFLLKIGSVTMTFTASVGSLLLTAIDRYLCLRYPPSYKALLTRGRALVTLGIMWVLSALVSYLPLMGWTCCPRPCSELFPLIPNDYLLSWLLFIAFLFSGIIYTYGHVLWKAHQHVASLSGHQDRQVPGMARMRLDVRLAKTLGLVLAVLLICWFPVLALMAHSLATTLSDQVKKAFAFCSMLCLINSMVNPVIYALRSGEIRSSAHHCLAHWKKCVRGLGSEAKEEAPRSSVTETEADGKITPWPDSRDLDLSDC

Usually EC50 stands for the concentration giving half of the maximal effect. Turning to `Cc1nnc(Cn2nnc3c(N4CC(F)(F)C(F)(F)C4)nc(C(C)(C)C)nc32)o1` [Example 175, 5-tert-Butyl-3-(5-methyl-[1,3,4]oxadiazol-2-ylmethyl)-7-(3,3,4,4-tetrafluoro-pyrrolidin-1-yl)-3H-[1,2,3]triazolo[4,5-d]pyrimidine], the EC50 in assay [1] is 1.5 nM; in assay [2] (setting [3]), > 10000 nM.
On the same counts, the results for `COc1ccc(Cn2nnc3c(N4CCOCC4)nc(C(C)(C)C)nc32)cc1` [Example 57, 5-tert-Butyl-3-(4-methoxy-benzyl)-7-morpholin-4-yl-3H-[1,2,3]triazolo[4,5-d]pyrimidine] are 12.3 nM and > 10000 nM.
On to `CC(C)(C)c1nc(N2CCC(F)(F)C2)c2nnn(CCc3cccnc3)c2n1` [Example 121, 5-tert-Butyl-7-(3,3-difluoro-pyrrolidin-1-yl)-3-(2-pyridin-3-yl-ethyl)-3H-[1,2,3]triazolo[4,5-d]pyrimidine], for which the half-maximal effective concentration (EC50) in assay [1] is 0.3 nM; in assay [2] (setting [3]), > 10000 nM.
In the same order, the values of `CC(C)(C)c1nc(N2CCC(F)(F)C2)c2nnn(Cc3cc(F)c(F)cc3Cl)c2n1` [Example 77, 5-tert-Butyl-3-(2-chloro-4,5-difluoro-benzyl)-7-(3,3-difluoro-pyrrolidin-1-yl)-3H-[1,2,3]triazolo[4,5-d]pyrimidine] are 0.8 nM and > 10000 nM.
For the molecule `CC(C)(C)c1nc(N2CC[C@H](O)C2)c2nnn(Cc3cccnc3Nc3ccc([N+](=O)[O-])c4nonc34)c2n1` [Example 158, (S)-1-{5-tert-Butyl-3-[2-(7-nitro-benzo[1,2,5]oxadiazol-4-ylamino)-pyridin-3-ylmethyl]-3H-[1,2,3]triazolo[4,5-d]pyrimidin-7-yl}-pyrrolidin-3-ol], the EC50 in assay [1] is 254 nM; in assay [2], > 10000 nM.
Turning to `CC(C)(C)c1nc(N2CC[C@H](O)C2)c2nnn(Cc3ncccc3Cl)c2n1` [Example 138, (S)-1-[5-tert-Butyl-3-(3-chloro-pyridin-2-ylmethyl)-3H-[1,2,3]triazolo[4,5-d]pyrimidin-7-yl]-pyrrolidin-3-ol], the EC50 in assay [1] is 0.4 nM; in assay [2] (setting [3]), > 10000 nM.
On the same counts, the results for `CC(C)(C)COc1nc(C(C)(C)C)nc2c1nnn2Cc1ccccc1Cl` [Example 213, 5-tert-Butyl-3-(2-chloro-benzyl)-7-(2,2-dimethyl-propoxy)-3H-[1,2,3]triazolo[4,5-d]pyrimidine] are 59.6 nM and > 10000 nM.
`CC1COCCN1c1nc(C(C)(C)C)nc2c1nnn2Cc1ccccc1Cl` (stereo not drawn) [Example 17, 5-tert-Butyl-3-(2-chloro-benzyl)-7-(3-methyl-morpholin-4-yl)-3H-[1,2,3]triazolo[4,5-d]pyrimidine]: the results for the concentration for a half-maximal effect (EC50) in assay [1] and in assay [2] (setting [3]) were 8.7 nM and > 10000 nM, respectively.
On the same counts, the results for `Cc1noc(Cn2nnc3c(N4CC[C@](C)(O)C4)nc(C(C)(C)C)nc32)n1` [Example 226-a, (S)-1-(5-tert-butyl-3-((3-methyl-1,2,4-oxadiazol-5-yl)methyl)-3H-[1,2,3]triazolo[4,5-d]pyrimidin-7-yl)-3-methylpyrrolidin-3-ol] are 57 nM and > 10000 nM.
On the same counts, the results for `CC1(C)CN(c2nc(C(C)(C)C)nc3c2nnn3Cc2ccccc2Cl)CCO1` [Example 23, 5-tert-Butyl-3-(2-chloro-benzyl)-7-(2,2-dimethyl-morpholin-4-yl)-3H-[1,2,3]triazolo[4,5-d]pyrimidine] are 75.4 nM and > 10000 nM.
On the same counts, the results for `CC(C)(C)c1nc(N2CC[C@@](C)(O)C2)c2nnn(Cc3nnnn3C3CC3)c2n1` [Example 230-b, (R)-1-(5-tert-butyl-3-((1-cyclopropyl-1H-tetrazol-5-yl)methyl)-3H-[1,2,3]triazolo[4,5-d]pyrimidin-7-yl)-3-methylpyrrolidin-3-ol] are 13.6 nM and > 10000 nM.
On to `COC[C@H]1CCCN1c1nc(C(C)(C)C)nc2c1nnn2Cc1ccccc1Cl` [Example 44, 5-tert-Butyl-3-(2-chloro-benzyl)-7-((R)-2-methoxymethyl-pyrrolidin-1-yl)-3H-[1,2,3]triazolo[4,5-d]pyrimidine], for which the EC50 is 1 nM in assay [1] and > 10000 nM in assay [2] (setting [3]).
On the same counts, the results for `CC(C)(C)c1nc(N2CC[C@](C)(O)C2)c2nnn(Cc3ncccc3Cl)c2n1` [Example 224-a, (S)-1-(5-tert-butyl-3-((3-chloropyridin-2-yl)methyl)-3H-[1,2,3]triazolo[4,5-d]pyrimidin-7-yl)-3-methylpyrrolidin-3-ol] are 1.1 nM and 899 nM.
In the same order, the values of `COc1ccc(Cn2nnc3c(N4CC[C@H](O)[C@@H]4CO)nc(C(C)(C)C)nc32)cc1` [Example 159, (2S,3S)-1-[5-tert-Butyl-3-(4-methoxy-benzyl)-3H-[1,2,3]triazolo[4,5-d]pyrimidin-7-yl]-2-hydroxymethyl-pyrrolidin-3-ol] are 35.8 nM and > 10000 nM.
On the same counts, the results for `COC[C@@H]1CCCN1c1nc(C(C)(C)C)nc2c1nnn2Cc1ccccc1Cl` [Example 45, 5-tert-Butyl-3-(2-chloro-benzyl)-7-((S)-2-methoxymethyl-pyrrolidin-1-yl)-3H-[1,2,3]triazolo[4,5-d]pyrimidine] are 52.2 nM and > 10000 nM.
In the case of `CC1(C)CCN(c2nc(C(C)(C)C)nc3c2nnn3Cc2ccccc2Cl)C1` [Example 189, 5-tert-Butyl-3-(2-chloro-benzyl)-7-(3,3-dimethyl-pyrrolidin-1-yl)-3H-[1,2,3]triazolo[4,5-d]pyrimidine], the EC50 was 33.2 nM in assay [1] and > 10000 nM in assay [2] (setting [3]).
On the same counts, the results for `CC(C)(C)c1nc(N2CCC(F)(F)C2)c2nnn(Cc3nc(C(F)(F)F)no3)c2n1` [Example 156, 5-tert-Butyl-7-(3,3-difluoro-pyrrolidin-1-yl)-3-(3-trifluoromethyl-[1,2,4]oxadiazol-5-ylmethyl)-3H-[1,2,3]triazolo[4,5-d]pyrimidine] are 5.6 nM and > 10000 nM.
On the same counts, the results for `CC(=O)N[C@H]1CCN(c2nc(C(C)(C)C)nc3c2nnn3Cc2ccccc2Cl)C1` [Example 192, N-{(S)-1-[5-tert-Butyl-3-(2-chloro-benzyl)-3H-[1,2,3]triazolo[4,5-d]pyrimidin-7-yl]-pyrrolidin-3-yl}-acetamide] are 22 nM and > 10000 nM.
On to `C[C@@H]1CN(c2nc(C(C)(C)C)nc3c2nnn3Cc2ccccc2Cl)C[C@H](C)O1` [Example 16, 5-tert-Butyl-3-(2-chloro-benzyl)-7-((2R,6S)-2,6-dimethyl-morpholin-4-yl)-3H-[1,2,3]triazolo[4,5-d]pyrimidine], for which the figures for the EC50 in assay [1] and in assay [2] were 286 nM and > 10000 nM, respectively.
For `CC(C)(C)c1nc(N2CC[C@@](C)(O)C2)c2nnn(CCC(F)(F)F)c2n1` [Example 229-b, (R)-1-(5-tert-butyl-3-(3,3,3-trifluoropropyl)-3H-[1,2,3]triazolo[4,5-d]pyrimidin-7-yl)-3-methylpyrrolidin-3-ol], the half-maximal effective concentration (EC50) in assay [1] is 37.4 nM; in assay [2] (setting [3]), > 10000 nM.
Consider `CC(C)(C)c1nc(N2CCOCC2)c2nn[nH]c2n1` [Example 58], for which the EC50 in assay [1] is 337 nM; in assay [2] (setting [3]), > 10000 nM.

The record behind these values is patent US8741906B2 (priority 2011, dated 2014).
